Data taken from patent publication US20240116920A1 (priority 2020, published 2024).

Assays:
TYK2 = TYK2 (Homo sapiens, UniProt P29597); test: biochemical
JAK3 = target: T1, JAK3 (Homo sapiens, UniProt P52333); test: biochemical
T1 sequence (P52333 1-1124): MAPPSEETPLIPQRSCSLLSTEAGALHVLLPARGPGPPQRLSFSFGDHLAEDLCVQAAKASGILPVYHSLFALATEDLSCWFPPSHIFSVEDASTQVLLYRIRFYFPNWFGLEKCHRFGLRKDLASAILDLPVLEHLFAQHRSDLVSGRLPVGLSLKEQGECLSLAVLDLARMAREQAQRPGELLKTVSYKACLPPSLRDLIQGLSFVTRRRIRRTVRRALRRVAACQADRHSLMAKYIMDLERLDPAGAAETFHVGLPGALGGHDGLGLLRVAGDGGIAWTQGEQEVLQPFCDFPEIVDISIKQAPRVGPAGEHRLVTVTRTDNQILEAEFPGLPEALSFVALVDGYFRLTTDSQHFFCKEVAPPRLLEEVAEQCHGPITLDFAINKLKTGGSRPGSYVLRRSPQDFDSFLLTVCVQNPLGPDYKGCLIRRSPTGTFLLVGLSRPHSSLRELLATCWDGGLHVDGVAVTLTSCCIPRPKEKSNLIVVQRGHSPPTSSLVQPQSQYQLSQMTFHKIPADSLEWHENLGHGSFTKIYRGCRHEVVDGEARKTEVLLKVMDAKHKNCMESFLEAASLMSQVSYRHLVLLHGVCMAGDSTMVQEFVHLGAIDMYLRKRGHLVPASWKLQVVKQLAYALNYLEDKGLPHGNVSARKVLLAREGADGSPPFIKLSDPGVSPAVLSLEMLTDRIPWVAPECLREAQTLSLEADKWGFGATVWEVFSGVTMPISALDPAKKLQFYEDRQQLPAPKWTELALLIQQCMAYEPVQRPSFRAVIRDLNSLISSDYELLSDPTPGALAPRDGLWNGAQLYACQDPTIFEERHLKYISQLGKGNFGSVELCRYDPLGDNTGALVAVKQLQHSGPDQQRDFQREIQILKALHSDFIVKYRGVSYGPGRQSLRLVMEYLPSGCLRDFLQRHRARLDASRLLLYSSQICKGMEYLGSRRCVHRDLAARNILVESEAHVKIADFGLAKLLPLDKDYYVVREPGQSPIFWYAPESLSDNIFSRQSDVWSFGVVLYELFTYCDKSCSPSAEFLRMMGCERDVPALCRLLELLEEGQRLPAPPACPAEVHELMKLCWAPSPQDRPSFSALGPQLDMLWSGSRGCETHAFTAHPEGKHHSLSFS

JAK2 = JAK2 (Homo sapiens, UniProt O60674); test: biochemical
JAK2, sequence (O60674 whole entry): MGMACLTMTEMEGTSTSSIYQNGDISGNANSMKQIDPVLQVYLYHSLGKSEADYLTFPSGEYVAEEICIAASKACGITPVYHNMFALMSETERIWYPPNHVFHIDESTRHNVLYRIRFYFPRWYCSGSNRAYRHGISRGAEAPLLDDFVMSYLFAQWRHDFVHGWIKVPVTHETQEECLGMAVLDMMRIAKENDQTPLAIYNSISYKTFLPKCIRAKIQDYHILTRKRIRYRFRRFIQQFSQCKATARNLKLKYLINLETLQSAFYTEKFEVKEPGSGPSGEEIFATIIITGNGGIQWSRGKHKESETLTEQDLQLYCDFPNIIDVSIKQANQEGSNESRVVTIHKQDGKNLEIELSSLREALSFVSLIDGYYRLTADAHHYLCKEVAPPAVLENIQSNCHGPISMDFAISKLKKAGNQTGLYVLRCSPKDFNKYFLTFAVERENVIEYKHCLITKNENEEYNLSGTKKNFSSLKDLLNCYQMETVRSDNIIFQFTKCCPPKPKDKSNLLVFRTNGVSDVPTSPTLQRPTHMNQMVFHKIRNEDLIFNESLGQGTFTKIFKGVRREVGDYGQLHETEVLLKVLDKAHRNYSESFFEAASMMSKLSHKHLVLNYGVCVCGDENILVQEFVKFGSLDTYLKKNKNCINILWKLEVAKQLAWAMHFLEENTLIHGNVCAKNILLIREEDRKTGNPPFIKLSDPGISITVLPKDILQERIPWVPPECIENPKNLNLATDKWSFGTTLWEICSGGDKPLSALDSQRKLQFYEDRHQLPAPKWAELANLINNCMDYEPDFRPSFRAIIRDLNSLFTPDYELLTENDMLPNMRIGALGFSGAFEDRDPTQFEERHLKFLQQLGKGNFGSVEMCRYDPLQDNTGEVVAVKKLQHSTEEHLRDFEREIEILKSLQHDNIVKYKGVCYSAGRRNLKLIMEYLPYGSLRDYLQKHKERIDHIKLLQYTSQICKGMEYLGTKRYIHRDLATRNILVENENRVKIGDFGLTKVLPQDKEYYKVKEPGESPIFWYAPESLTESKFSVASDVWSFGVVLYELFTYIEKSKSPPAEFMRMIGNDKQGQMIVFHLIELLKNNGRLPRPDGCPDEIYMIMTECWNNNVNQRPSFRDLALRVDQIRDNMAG

JAK1/STAT3 signaling = test: Immunobit cell-based pSTAT3 and pSTAT5 immunoassay; set-up: species or system human
[1] = system: LX-2 human hepatic stellate cells; test: TGF-β-induced LX-2 cell proliferation (CCK8); type: cell-based

TYK2, sequence (P29597 whole entry): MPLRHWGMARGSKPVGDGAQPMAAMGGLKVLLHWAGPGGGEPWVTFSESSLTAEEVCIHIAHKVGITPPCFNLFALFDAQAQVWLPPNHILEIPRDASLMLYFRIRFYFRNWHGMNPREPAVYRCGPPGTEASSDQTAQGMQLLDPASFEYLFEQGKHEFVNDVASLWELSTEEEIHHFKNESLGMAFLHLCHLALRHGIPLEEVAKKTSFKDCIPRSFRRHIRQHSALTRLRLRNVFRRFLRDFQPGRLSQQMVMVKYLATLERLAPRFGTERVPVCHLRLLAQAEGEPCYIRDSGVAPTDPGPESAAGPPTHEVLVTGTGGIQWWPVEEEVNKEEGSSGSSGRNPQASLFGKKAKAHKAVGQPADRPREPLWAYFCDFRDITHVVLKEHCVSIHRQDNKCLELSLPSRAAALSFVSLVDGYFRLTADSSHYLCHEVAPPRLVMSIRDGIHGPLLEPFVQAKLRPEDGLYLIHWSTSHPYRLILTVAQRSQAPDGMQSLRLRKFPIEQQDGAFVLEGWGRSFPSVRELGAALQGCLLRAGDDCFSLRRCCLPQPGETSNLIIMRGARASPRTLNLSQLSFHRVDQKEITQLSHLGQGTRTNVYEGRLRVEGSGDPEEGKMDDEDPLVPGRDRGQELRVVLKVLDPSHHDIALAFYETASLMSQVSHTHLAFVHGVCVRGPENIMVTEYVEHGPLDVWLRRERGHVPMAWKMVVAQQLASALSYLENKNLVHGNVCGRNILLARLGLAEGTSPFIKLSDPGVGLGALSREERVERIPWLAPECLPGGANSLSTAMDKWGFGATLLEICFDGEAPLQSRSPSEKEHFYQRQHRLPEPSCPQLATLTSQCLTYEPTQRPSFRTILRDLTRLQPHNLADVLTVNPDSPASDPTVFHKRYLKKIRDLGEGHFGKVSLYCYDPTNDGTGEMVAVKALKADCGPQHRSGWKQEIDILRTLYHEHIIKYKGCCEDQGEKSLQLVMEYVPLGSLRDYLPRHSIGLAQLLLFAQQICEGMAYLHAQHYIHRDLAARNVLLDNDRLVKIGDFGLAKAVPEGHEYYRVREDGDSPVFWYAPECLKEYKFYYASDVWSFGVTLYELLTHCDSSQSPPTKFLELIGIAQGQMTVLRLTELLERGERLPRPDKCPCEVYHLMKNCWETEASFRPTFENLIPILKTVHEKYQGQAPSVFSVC

SMILES	IC50 (TYK2) [nM]	IC50 (JAK3) [nM]	IC50 (JAK2) [nM]	effect on JAK/STAT signaling (pSTAT3, pSTAT5) (JAK1/STAT3 signaling)	inhibitory effect on LX-2 proliferation induced by TGF-β ([1]; LX-2, TGF-β-induced, CCK8)	inhibitory effect on LX-2 cell growth versus tofacitinib or filgotinib ([1]; incubation with TGF-β for 72 h)
CNC(=O)c1cnc2[nH]ccc2c1N[C@@H]1CCN(Cc2cnc(C(F)(F)F)nc2)[C@H](C)C1 (racemic) [compound 49]	36.9	8.39	8.78			
O=C(Nc1nc2cccc(-c3ccc(CN4CCS(=O)(=O)CC4)cc3)n2n1)C1CC1 [filgotinib]				reduced pSTAT3 and pSTAT5, but with less effect than 31g		
COC(=O)c1ccc2c(c1)NC(=O)/C2=C(\Nc1ccc(N(C)C(=O)CN2CCN(C)CC2)cc1)c1ccccc1 [nintedanib]				did not affect the JAK/STAT pathway	dose-dependent inhibitory effects	superior to those of tofacitinib or filgotinib
